Experimental data as given in patent EP1226131B1, “ISOXAZOLECARBOXAMIDE DERIVATIVES” (RECORDATI INDUSTRIA CHIMICA E FARMACEUTICA S.p.a., priority 1999, dated 2001).

How the values were obtained:
[1] = tested on: α1L adrenoceptor; test: Functional antagonism of noradrenaline-induced contractions of rabbit aorta pretreated with chloroethylclonidine; assay type: biochemical; settings: functional affinity, NA-induced contractions
Experimental: Adult male New Zealand rabbits were sacrificed by cervical dislocation. The aorta was removed, placed in Krebs-Henseleit buffer and dissected free of adhering tissue.
Each antagonist concentration was tested using 2-3 aortic rings from different rabbits.
Dose ratios (i.e., the ratio between the concentrations of noradrenaline required to produce half-maximal response in the presence and in the absence of the test antagonist) were calculated at each concentration of the compounds.

[2] = tested on: urethral contractions (UP) induced by noradrenaline (NA); test: Urethral contractions induced by noradrenaline injection in anaesthetised dogs, i.v. administration; assay type: in vivo; settings: dog
Experimental: (§1) The experiments were performed according to the method of Imagawa J. et al., J Pharmacol. Methods 22, 103-111 (1989), with substantial modifications, as follows: adult male beagle dogs, weighing 8-10 kg, were anaesthetised with pentobarbital sodium (30 mg/kg i.v. and 2 mg/kg/h i.v.), intubated and spontaneously ventilated with room air. In order to monitor systemic blood pressure (BP), a polyethylene (PE) catheter was introduced into the aortic arch through the left femoral artery. A collateral of the left femoral vein was cannulated for infusion of anaesthetic, and the right femoral vein was cannulated for administration of the compounds. For intraarterial (i.a.) injection of noradrenaline (NA), a PE catheter was introduced into the lower portion of the abdominal aorta via the right external iliac artery. Through such procedure, NA was selectively distributed to the lower urinary tract. A paramedian vertical suprapubic incision extending from the base of the pelvis to the mid-abdominal region was made and the bladder and the prostate were exposed. The bladder was manually emptied with a syringe. […] The distal end of the right or left branch of the nerve was placed on a bipolar platinum electrode. Prostatic urethral pressure was monitored with a Mikro-tip cathe[…]) introduced into the bladder via the external urethral meatus, and withdrawn until the pressure transducer was positioned in the prostatic region of the urethra. A ligature was secured between the neck of the bladder and urethra to isolate the response of the latter and to avoid any interaction with the bladder. Another ligature was put around the Mikro-tip catheter at the external meatus, to secure the catheter itself. […] Both i.a. injections of NA and stimulations of the hypogastric nerve were repeated 5 minutes after every dosing of test compound with intervals of about 5 minutes between two stimulations. In order to compare the effects of the administered compound, dose/response curves were constructed by computing, at the peak effect, the percent decrease in diastolic blood pressure and the percent inhibition of the increase in urethral pressure induced by both types of stimulation used.

[3] = tested on: urethral contractions (UP) induced by hypogastric-nerve stimulation (HYP); test: Urethral contractions induced by hypogastric-nerve stimulation in anaesthetised dogs, i.v. administration; assay type: in vivo; settings: Canis lupus familiaris, iv, dog, dose inhibiting by 50% urethral contractions induced by hypogastric-nerve stimulation, read-out: UP ID50 HYP
Experimental: as §1, with “In order to compare the effects of the administered compound, dose/response curves were constructed by computing, at the peak effect, the percent decrease in diastolic blood pressure and the percent inhibition of the increase in urethral pressure induced by both types of stimulation used.” left out

[4] = tested on: diastolic blood pressure (DBP); test: Effect on diastolic blood pressure in anaesthetised dogs, i.v. administration; assay type: in vivo; settings: dog, dose inducing a 25% decrease in diastolic blood pressure, one value spanning c3 and c4
Experimental: The experiments were performed according to the method of Imagawa J. et al., J Pharmacol. Methods 22, 103-111 (1989), with substantial modifications, as follows: adult male beagle dogs, weighing 8-10 kg, were anaesthetised with pentobarbital sodium (30 mg/kg i.v. and 2 mg/kg/h i.v.), intubated and spontaneously ventilated with room air. In order to monitor systemic blood pressure (BP), a polyethylene (PE) catheter was introduced into the aortic arch through the left femoral artery. A collateral of the left femoral vein was cannulated for infusion of anaesthetic, and the right femoral vein was cannulated for administration of the compounds. For intraarterial (i.a.) injection of noradrenaline (NA), a PE catheter was introduced into the lower portion of the abdominal aorta via the right external iliac artery. Through such procedure, NA was selectively distributed to the lower urinary tract. A paramedian vertical suprapubic incision extending from the base of the pelvis to the mid-abdominal region was made and the bladder and the prostate were exposed. The bladder was manually emptied with a syringe. […] The distal end of the right or left branch of the nerve was placed on a bipolar platinum electrode. Prostatic urethral pressure was monitored with a Mikro-tip catheter (5F) introduced into the bladder via the external urethral meatus, and withdrawn until the pressure transducer was positioned in the prostatic region of the urethra. A ligature was secured between the neck of the bladder and urethra to isolate the response of the latter and to avoid any interaction with the bladder. Another ligature was put around the Mikro-tip catheter at the external meatus, to secure the catheter itself. The hypogastric nerve stimulation was made with a train of rectangular pulses of 10-15 V, 10-30 Hz, width 5 msec, 8 sec duration.
After a stabilising period following the surgical procedure (30 minutes), in which arterial and prostatic urethral pressure were continuously monitored as basal values, i.a. administration of NA and stimulation of the hypogastric nerve were alternately made at intervals of 10 minutes.
The dose of NA and the parameter of hypogastric nerve stimulation chosen were such as to produce an increase of at least 100% in urethral pressure. The test compounds were administered i.v. in a cumulative manner with intervals of 15-20 min between administrations. Both i.a. injections of NA and stimulations of the hypogastric nerve were repeated 5 minutes after every dosing of test compound with intervals of about 5 minutes between two stimulations. […]

[5] = target: T1, α1a adrenergic receptor (Homo sapiens, UniProt P35348); test: Radioligand binding assay ([3H]prazosin) on cloned α1-adrenoceptor subtype, membranes of transfected cells
T1 sequence (P35348 1-466): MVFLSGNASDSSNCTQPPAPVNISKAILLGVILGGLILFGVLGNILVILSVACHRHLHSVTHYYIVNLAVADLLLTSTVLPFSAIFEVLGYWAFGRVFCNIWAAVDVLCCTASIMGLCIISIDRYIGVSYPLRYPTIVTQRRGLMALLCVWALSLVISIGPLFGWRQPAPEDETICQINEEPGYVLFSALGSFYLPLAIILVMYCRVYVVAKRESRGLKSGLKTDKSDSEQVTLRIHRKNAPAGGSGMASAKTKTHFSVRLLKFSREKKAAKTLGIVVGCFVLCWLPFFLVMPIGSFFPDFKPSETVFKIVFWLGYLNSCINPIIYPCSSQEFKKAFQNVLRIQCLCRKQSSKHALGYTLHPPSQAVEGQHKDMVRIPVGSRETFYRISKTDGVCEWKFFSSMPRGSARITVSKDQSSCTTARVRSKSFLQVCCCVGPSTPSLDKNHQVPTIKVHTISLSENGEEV
Experimental: (§2) Determination of affinity for cloned subtypes of the cloned α1-adrenoceptor was performed in membranes from cells transfected by electroporation with DNA expressing the genes encoding each α1-adrenoceptor subtype.
(§3) Non-specific binding was determined in the presence of 10 µM phentolamine. Incubation was stopped by addition of ice-cold Tris buffer and rapid filtration through 0.2%-polyethyleneimine pretreated Schleicher & Schuell GF52 filters. […] The homogenates were centrifuged at 40000 × g × 20 minutes and the membranes were resuspended in a small volume of ice-cold buffer containing Tris 5 mM and EDTA 5 mM (pH 7.4) and immediately frozen and stored at -70°C until use.
Data were expressed as mean of Ki.

[6] = target: T2, recombinant α1d-adrenoceptor (Homo sapiens, UniProt P25100); test: as above
T2 sequence (P25100 1-572): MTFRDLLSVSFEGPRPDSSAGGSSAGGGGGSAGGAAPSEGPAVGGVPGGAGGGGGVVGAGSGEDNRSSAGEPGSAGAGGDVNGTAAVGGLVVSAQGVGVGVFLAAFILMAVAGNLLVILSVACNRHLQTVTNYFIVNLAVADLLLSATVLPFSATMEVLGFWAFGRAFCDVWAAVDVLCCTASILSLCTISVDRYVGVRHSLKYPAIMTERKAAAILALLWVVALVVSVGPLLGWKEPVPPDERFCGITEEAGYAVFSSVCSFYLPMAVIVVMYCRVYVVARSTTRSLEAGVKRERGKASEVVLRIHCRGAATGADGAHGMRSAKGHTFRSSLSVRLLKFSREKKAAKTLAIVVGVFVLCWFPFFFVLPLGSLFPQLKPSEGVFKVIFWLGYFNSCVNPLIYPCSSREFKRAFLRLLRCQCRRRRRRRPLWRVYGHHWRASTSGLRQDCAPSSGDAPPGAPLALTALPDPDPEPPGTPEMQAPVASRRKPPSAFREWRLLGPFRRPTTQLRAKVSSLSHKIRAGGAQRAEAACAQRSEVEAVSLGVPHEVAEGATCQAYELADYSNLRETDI
Experimental: as §2, §3
Data were expressed as mean of Ki.

## Cc1onc(-c2ccccc2)c1C(=O)NCCCN1CCN(c2ccccc2OCC(F)(F)F)CC1 [Example 3, 5-Methyl-3-phenyl-N-{3-[4-[2-(2,2,2-trifluoroethoxy)-phenyl]-1-piperazinyl]-propyl}isoxazole-4-carboxamide]
[1]
  pKb: 8.47
[2]; Canis lupus familiaris, iv, dose inhibiting by 50% urethral contractions induced by noradrenaline, read-out: UP ID50 NA
  ED50: 1.3 µg/kg
[2]; ratio DBP ED25 / UP ID50 NA
  R1 (DBP/NA): 396
[3]
  ED50: 2.4 µg/kg
[4]
  DBP ED25: 514.7 µg/kg
[5]
  Ki: 0.066 nM
[6]
  Ki: 1.45 nM
